Reference: paper PMC6374824 (International Journal of Endocrinology, 2019)
“Also recorded” adds a separate entry of the source.

Columns and labels:
hIAPP [1] = target: T1, hIAPP (Homo sapiens, UniProt P10997); settings: ref [25], cited from earlier work; for inhibition of hIAPP aggregation in vitro: [26]
T1 construct: hormone secreted by β-cells consisting of 37 amino acid residues; purchased ChinaPeptide Co. Ltd. (Shanghai, China); host or cells: chemical synthesis
T1 sequence (P10997 34-70 limits assumed): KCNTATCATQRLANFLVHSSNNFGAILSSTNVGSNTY
From the text: In the present study, a pentapeptide inhibitor Phe-Leu-Pro-Asn-Phe (FLPNF) that contains only five amino acids has been designed. […] After that, the ...

fibrils of hIAPP = settings: ref [25]; cited from earlier work
From the text: In the early research, SNNFGA and GAILSS could not completely prevent the formation of fibr ...

INS-1 cells = assay: Cell proliferation assay (MTS), hIAPP cytotoxicity in INS-1 cells
Experimental: The INS-1 cells at a density of 2 × 10^4 were plated in a 96-well plate. […] The untreated control cells received equal fresh medium. The medium of each group contained 0.2 μL DMSO, equal to 0.2% DMSO. Consequently, 10 μL MTS solution was added to each well and incubated for additional 2 hours. The optical density (OD) values were measured at 490 nm using a PowerWave XS2 microplate spectrophotometer (Thermo Scientific, USA). Each experiment was repeated thrice.

hIAPP amyloid fibrils = assay: Transmission electron microscopy of hIAPP amyloid fibrils; assay type: biochemical, human; settings: PBS, 24 hours, 37°C, 2% phosphotungstic acid stain; for hIAPP fibril formation by TEM, with added peptide: 100 μM peptide + 10 μM hIAPP
Experimental: TEM was used to directly observe the relative density and morphological changes of hIAPP amyloid fibrils. […] A volume of 10 μL of each sample was placed on mesh copper grids (Servicebio, Wuhan, China) and was covered by a carbon-stabilized formvar film. After 3 min, excess fluid was removed, and the grids were stained with 2% phosphotungstic acid for 3 min. Samples were analyzed using a HT7700 transmission electron microscope (Hitachi, Japan).

islet amyloid = settings: ref [27]; cited from earlier work
From the text: In the present study, a pentapeptide inhibitor Phe-Leu-Pro-Asn-Phe (FLPNF) that contains only five amino acids has been designed. […] Even so, FLPNF was optimally designed and consisted of ...

hIAPP [2] = target: T1, hIAPP; assay: Thioflavin T fluorescence assay, time course; assay type: biochemical; settings: for ThT fluorescence intensity compared to hIAPP group, significance: PBS pH 7.4, 37°C, unpaired t-test
hIAPP [3] = target: T1, hIAPP; assay: Thioflavin T fluorescence assay, concentration dependence; assay type: biochemical; settings: PBS, 24 hours, 37°C
Experimental: The stock solutions were aliquoted and stored at -80°C according to the instructions.
The plates were incubated at 37°C for 0, 12, 24, and 48 hours. Finally, the fluorescence image was detected by an XDY-100 fluorescence microscope (Zhongheng, Shanghai, China). Subsequently, the fluorescence intensity values of each group were measured by a Fluoroskan Ascent FL luminescence meter (Thermo Scientific, USA) using an excitation λ of 435 nm and an emission λ of 485 nm. At each time course, the fluorescence intensity values of the control group were set as 1, while the values of test groups relative to the control group were set as fluorescence intensity (A.U.) and used for statistical analysis. Each experiment was repeated thrice.
The fluorescence images and the fluorescence intensity values of each group were collected after incubating for 24 hours. Each experiment was repeated thrice.

hIAPP [4] = target: T1, hIAPP; assay: Biolayer interferometry, FLPNF immobilized; assay type: binding; settings: hIAPP 400 μM (method) / 100 μM (Figure 5 legend)
Experimental: Experiments were performed by Shuangtian Biotech Co. Ltd. FLPNF were reconstituted in PBS (pH = 7.4) and immobilized on aminopropylsilane (APS) biosensors. […] This was followed by a 600 sec dissociation phase in dissociation buffer (50% DMSO+0.05% PBST) in PBS. A response unit represented the bonding height on the biosensor. The association and dissociation curves were analyzed and constructed by Octet K2 biolayer interferometry.

NFGAILPP
inhibition of hIAPP aggregation in vitro (hIAPP [1]): can inhibit hIAPP aggregation in vitro

NYGAILSS
inhibition of hIAPP aggregation in vitro (hIAPP [1]): can inhibit hIAPP aggregation in vitro

GAILSS
inhibition of hIAPP aggregation in vitro (hIAPP [1]): can inhibit hIAPP aggregation in vitro | prevention of hIAPP fibril formation on TEM images (fibrils of hIAPP): could not completely prevent the formation of fibrils of hIAPP

human islet amyloid polypeptide (KCNTATCATQRLANFLVHSSNNFGAILSSTNVGSNTY; Islet amyloid polypeptide; UniProt P10997 34-70, looked up) [hIAPP, hormone secreted by β-cells consisting of 37 amino acid residues]
INS-1 cell viability compared to control group (INS-1 cells; 10 μM hIAPP alone, 24 hours, OD 490 nm, P < 0.001, unpaired t-test, repeated thrice): significantly decreased the cell viability | fibril morphology of hIAPP alone by TEM (hIAPP amyloid fibrils; 10 μM hIAPP alone): typical dense fibrils; also recorded: typical morphology and formation of dense aggregates

D-ANFLVH
reduction of amyloid aggregates in vivo (islet amyloid): could reduce the islet amyloid accumulation in vivo; also recorded: can reduce the formation of amyloid aggregates in vivo

Phe-Leu-Pro-Asn-Phe [FLPNF]
ThT fluorescence intensity compared to hIAPP group, significance (hIAPP [2]; 100 μM FLPNF + 10 μM hIAPP, 24 h, P < 0.05, ex 435 nm, em 485 nm, repeated thrice): significantly lowered | ThT fluorescence intensity compared to hIAPP group, significance (hIAPP [2]; 100 μM FLPNF + 10 μM hIAPP, 48 h, P < 0.01, ex 435 nm, em 485 nm, repeated thrice): significantly lowered | ThT fluorescence intensity compared to hIAPP alone (luminescence meter) (hIAPP [2]; 100 μM FLPNF + 10 μM hIAPP, PBS pH 7.4, 20 μM ThT, 37°C, 12, 24 and 48 hours, ex 435 nm, em 485 nm, repeated thrice): decreased the fluorescence intensity compared to hIAPP alone | ThT fluorescence signal (fluorescence microscope) (hIAPP [2]; 100 μM peptide + 10 μM hIAPP, PBS pH 7.4, 20 μM ThT, 37°C, 24 and 48 hours): strong reduction of the fluorescence signal | inhibition of hIAPP amyloid aggregation (hIAPP [2]; 10 : 1 molar ratio FLPNF to hIAPP, in vitro, ThT): strongly inhibited the amyloid aggregation of hIAPP | inhibitory effect at 48 hours (hIAPP [2]; in vitro, 48 hours): still had an inhibitory effect | inhibition of amyloid formation (hIAPP [2]; tenfold molar excess to hIAPP, PBS, 24 hours): partially inhibited amyloid formation | ThT green fluorescence signal with increasing concentrations (fluorescence microscope) (hIAPP [3]; 0, 20, 50, 100, 200, 400 μM FLPNF + 10 μM hIAPP): gradually decreased | ThT fluorescence intensity with increasing concentrations (luminescence meter) (hIAPP [3]; 0, 20, 50, 100, 200, 400 μM FLPNF + 10 μM hIAPP, repeated thrice): gradually reduced | ThT fluorescence intensity compared to 0 μM group (hIAPP [3]; 100, 200 and 400 μM FLPNF + 10 μM hIAPP, P < 0.05, unpaired t-test, repeated thrice): significantly lowered | association response (response units) (hIAPP [4]; FLPNF immobilized on APS biosensor, PBS pH 7.4, association 300 sec, Octet K2): approximately 0.02 nm | interaction between FLPNF and hIAPP (hIAPP [4]; biolayer interferometry, immobilized FLPNF): strong interaction | dissociation (hIAPP [4]; dissociation phase 600 sec, 50% DMSO+0.05% PBST in PBS, Octet K2): tardily reversible; also recorded: slowly dropped to 0 | INS-1 cell viability compared to hIAPP group (INS-1 cells; 100 μM FLPNF + 10 μM hIAPP, 24 hours, OD 490 nm, P < 0.05, unpaired t-test, repeated thrice): significant improvement in cell viability | INS-1 cell viability, FLPNF alone (INS-1 cells; FLPNF alone, no hIAPP, MTS): no direct effect on the viability of INS-1 cells; also recorded: no direct effect on cell viability | INS-1 cell viability compared to control group, with FLPNF + hIAPP (INS-1 cells; hIAPP with FLPNF at 1 : 10 ratio, 24 hours, MTS): still lower | hIAPP fibril formation by TEM, with added peptide (hIAPP amyloid fibrils): reduced the amounts of fibril formation; also recorded: not completely prevented but were reduced in density; also recorded: less numerous but appeared to be more thickened

SNNFGA
inhibition of hIAPP aggregation in vitro (hIAPP [1]): can inhibit hIAPP aggregation in vitro | prevention of hIAPP fibril formation on TEM images (fibrils of hIAPP): could not completely prevent the formation of fibrils of hIAPP

NFGAIL [reference compound]
effect on hIAPP fibril formation (hIAPP [1]; residues 22–27 of hIAPP, negative control): could enhance hIAPP fibril formation | ThT fluorescence intensity compared to hIAPP group (luminescence meter) (hIAPP [2]; 100 μM NFGAIL + 10 μM hIAPP, PBS pH 7.4, 20 μM ThT, 37°C, ex 435 nm, em 485 nm, repeated thrice): did not decrease | ThT fluorescence signal compared to 0 μM group (hIAPP [3]; any concentration of NFGAIL (20-400 μM) + 10 μM hIAPP): no reduction | reduction of cytotoxic effects of hIAPP in INS-1 cells (INS-1 cells; 100 μM NFGAIL + 10 μM hIAPP, 24 hours, MTS, OD 490 nm): no effect of reducing the cytotoxic effects of hIAPP | hIAPP fibril formation by TEM, with added peptide (hIAPP amyloid fibrils): did not reduce or even increase the amount of the fibril formation; also recorded: No reduction of the fibrils
